In the Kinase Knowledgebase extract (Sharma et al. 2016):
pIC50: −log10 of the molar value.

Assays:
EGFR (human) [1] = molecular target: EGFR (human) (UniProt P00533); settings: a431
EGFR (human) [2] = molecular target: EGFR (human) (UniProt P00533)

Chain of EGFR (human) (P00533 whole entry, looked up): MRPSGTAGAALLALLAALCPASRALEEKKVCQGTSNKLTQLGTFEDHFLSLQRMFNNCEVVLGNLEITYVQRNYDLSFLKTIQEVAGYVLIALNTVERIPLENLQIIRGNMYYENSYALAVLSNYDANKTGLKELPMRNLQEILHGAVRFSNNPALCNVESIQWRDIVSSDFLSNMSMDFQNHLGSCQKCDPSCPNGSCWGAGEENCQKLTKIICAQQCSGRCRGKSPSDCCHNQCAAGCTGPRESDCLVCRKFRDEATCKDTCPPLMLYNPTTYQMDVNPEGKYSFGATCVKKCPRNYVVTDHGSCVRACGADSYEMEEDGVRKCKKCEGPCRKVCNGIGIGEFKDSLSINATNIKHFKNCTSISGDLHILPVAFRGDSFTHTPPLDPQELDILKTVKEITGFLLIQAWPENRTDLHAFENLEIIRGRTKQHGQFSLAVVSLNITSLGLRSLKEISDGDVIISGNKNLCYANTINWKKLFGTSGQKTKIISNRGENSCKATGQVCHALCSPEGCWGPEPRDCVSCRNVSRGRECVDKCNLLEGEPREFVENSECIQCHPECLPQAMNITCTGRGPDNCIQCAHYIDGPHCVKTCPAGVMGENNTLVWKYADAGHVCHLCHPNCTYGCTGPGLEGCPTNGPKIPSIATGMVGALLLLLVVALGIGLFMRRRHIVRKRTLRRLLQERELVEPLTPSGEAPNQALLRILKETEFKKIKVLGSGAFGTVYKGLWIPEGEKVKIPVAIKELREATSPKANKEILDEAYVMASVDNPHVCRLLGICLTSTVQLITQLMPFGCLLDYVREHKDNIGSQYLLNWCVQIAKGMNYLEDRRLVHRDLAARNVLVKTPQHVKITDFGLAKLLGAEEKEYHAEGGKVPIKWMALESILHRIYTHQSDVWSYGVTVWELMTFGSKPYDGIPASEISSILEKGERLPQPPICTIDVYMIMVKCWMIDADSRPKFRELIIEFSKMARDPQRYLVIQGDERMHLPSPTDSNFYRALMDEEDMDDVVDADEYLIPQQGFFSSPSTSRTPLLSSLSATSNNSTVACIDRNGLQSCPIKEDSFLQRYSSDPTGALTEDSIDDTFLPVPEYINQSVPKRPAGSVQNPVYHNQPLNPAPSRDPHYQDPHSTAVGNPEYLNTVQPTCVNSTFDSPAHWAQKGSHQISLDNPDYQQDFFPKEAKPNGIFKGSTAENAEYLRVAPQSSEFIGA

Row | Compound | pIC50 (EGFR (human) [1]) | pIC50 (EGFR (human) [2])
1 | CS(=O)(=O)CCNCC(O)Cn1ccc(-c2ccc3ncnc(Nc4ccc5c(cnn5Cc5cccc(F)c5)c4)c3c2)c1 (stereo unspecified) | 6.37 | 9.00
2 | CCN(CC)CCNCc1ccn(-c2ccc3ncnc(Nc4ccc(OCc5cccc(F)c5)c(Cl)c4)c3c2)c1 | 6.70 | 8.10
3 | Fc1ccc(Nc2ncnc3ccc(-c4ccc[nH]4)cc23)cc1Cl | 7.68 | 7.96
4 | CN1CCN(CC(O)Cn2ccc(-c3ccc4ncnc(Nc5ccc6c(cnn6Cc6cccc(F)c6)c5)c4c3)c2)CC1 (stereo unspecified) | 6.11 | 8.70
5 | Fc1cccc(Cn2ncc3cc(Nc4ncnc5ccc(-c6ccn(CCN7CCOCC7)c6)cc45)ccc32)c1 | 7.00 | 8.22
6 | OC(CN1CCN(Cc2ccncc2)CC1)Cn1ccc(-c2ccc3ncnc(Nc4ccc5c(cnn5Cc5cccc(F)c5)c4)c3c2)c1 (stereo unspecified) | 5.38 | 6.22
7 | C[C@@H]1CN(C(=O)Cn2ccc(-c3ccc4ncnc(Nc5ccc(OCc6cccc(F)c6)c(Cl)c5)c4c3)c2)C[C@H](C)N1 | 6.11 | 7.92
8 | CS(=O)(=O)CCNCc1cn(-c2ccc3ncnc(Nc4ccc(OCc5cccc(F)c5)c(Cl)c4)c3c2)cc1C(F)(F)F | 6.08 | 7.80
9 | OCCc1cn(-c2ccc3ncnc(Nc4ccc(OCc5ccccn5)c(Cl)c4)c3c2)cc1CN1CCCCC1 | 8.52 | 7.49
10 | OC(CN1CCCCC1)Cn1ccc(-c2ccc3ncnc(Nc4ccc(OCc5cccc(F)c5)c(Cl)c4)c3c2)c1 (stereo unspecified) | 6.35 | 7.68
11 | Fc1cccc(COc2ccc(Nc3ncnc4ccc(-c5cc(CNCCN6CCOCC6)c[nH]5)cc34)cc2Cl)c1 | 6.62 | 8.10
12 | OCCN1CCN(CC(O)Cn2ccc(-c3ccc4ncnc(Nc5ccc6c(cnn6Cc6cccc(F)c6)c5)c4c3)c2)CC1 (stereo unspecified) | 6.34 | –
13 | O=C(Cn1ccc(-c2ccc3ncnc(Nc4ccc(OCc5cccc(F)c5)c(Cl)c4)c3c2)c1)N1CCNCC1 | 6.18 | 7.39
14 | CN1CCN(CCNCc2cn(-c3ccc4ncnc(Nc5ccc(OCc6cccc(F)c6)c(Cl)c5)c4c3)cc2C(F)(F)F)CC1 | 6.80 | 7.49
15 | CS(=O)(=O)CCn1ccc(-c2ccc3ncnc(Nc4ccc(OCc5cccc(F)c5)c(Cl)c4)c3c2)c1 | 6.19 | –
16 | CCN(CC)CC(O)Cn1ccc(-c2ccc3ncnc(Nc4ccc5c(cnn5Cc5cccc(F)c5)c4)c3c2)c1 (stereo unspecified) | 6.92 | 7.70
17 | O=S1(=O)CCC(CNCc2ccn(-c3ccc4ncnc(Nc5ccc(OCc6cccc(F)c6)c(Cl)c5)c4c3)c2)CC1 | 6.31 | –
18 | N[C@H]1CCCN(C(=O)Cn2ccc(-c3ccc4ncnc(Nc5ccc(OCc6cccc(F)c6)c(Cl)c5)c4c3)c2)C1 | 6.14 | 7.42
19 | O=C(NCCCN1CCOCC1)c1cn(-c2ccc3ncnc(Nc4ccc(F)c(Cl)c4)c3c2)cc1CCO | 6.25 | –
20 | Clc1cc(Nc2ncnc3ccc(-n4cccc4)cc23)ccc1OCc1ccccn1 | 8.00 | 8.22
21 | CS(=O)(=O)CCNCc1ccc(-c2ccc3ncnc(Nc4ccc(OCc5ccccn5)c(Cl)c4)c3c2)[nH]1 | 6.24 | 7.89
22 | CS(=O)(=O)CCNC1CCN(C[C@@H](O)Cn2ccc(-c3ccc4ncnc(Nc5ccc(OCc6cccc(F)c6)c(Cl)c5)c4c3)c2)CC1 | 5.44 | 7.96
23 | CC(=O)N[C@@H]1CCN(CC(O)Cn2ccc(-c3ccc4ncnc(Nc5ccc(OCc6cccc(F)c6)c(Cl)c5)c4c3)c2)C1 (stereo partly specified) | 5.42 | –
24 | O=C1OCCc2cn(-c3ccc4ncnc(Nc5ccc(OCc6cccc(F)c6)c(Cl)c5)c4c3)cc21 | 6.24 | 8.30
25 | OC1CCN(C[C@@H](O)Cn2ccc(-c3ccc4ncnc(Nc5ccc(OCc6cccc(F)c6)c(Cl)c5)c4c3)c2)CC1 | 5.87 | –

Row | Compound | pIC50 (EGFR (human) [1]) | pIC50 (EGFR (human) [2])
26 | CCOC(=O)C1CCN(CC(O)Cn2ccc(-c3ccc4ncnc(Nc5ccc(OCc6cccc(F)c6)c(Cl)c5)c4c3)c2)CC1 (stereo unspecified) | 5.70 | –
27 | CCOC(=O)C1CCCN(CC(O)Cn2ccc(-c3ccc4ncnc(Nc5ccc(OCc6cccc(F)c6)c(Cl)c5)c4c3)c2)C1 (stereo unspecified) | 5.77 | –
28 | CN1CCN(CCNC(=O)c2cn(-c3ccc4ncnc(Nc5ccc(OCc6cccc(F)c6)c(Cl)c5)c4c3)cc2CCO)CC1 | 8.00 | 8.12
29 | Fc1cccc(COc2ccc(Nc3ncnc4ccc(-c5ccn(CCN6CCCCC6)c5)cc34)cc2Cl)c1 | 5.54 | –
30 | Clc1cc(Nc2ncnc3ccc(-c4ccc[nH]4)cc23)ccc1OCc1ccccn1 | 7.05 | 8.30
31 | Fc1cccc(Cn2ncc3cc(Nc4ncnc5ccc(-c6ccn(CCN7CCCC7)c6)cc45)ccc32)c1 | 6.21 | –
32 | O=S1(=O)CCC(CNCc2cc(-c3ccc4ncnc(Nc5ccc6c(cnn6Cc6cccc(F)c6)c5)c4c3)c[nH]2)CC1 | 5.96 | 8.15
33 | Fc1cccc(COc2ccc(Nc3ncnc4ccc(-c5ccn(CCc6ccccn6)c5)cc34)cc2Cl)c1 | 5.92 | –
34 | CCN(CC)C[C@H](O)Cn1ccc(-c2ccc3ncnc(Nc4ccc5c(cnn5Cc5cccc(F)c5)c4)c3c2)c1 | 6.66 | 7.42
35 | O[C@@H](CN1CCOCC1)Cn1ccc(-c2ccc3ncnc(Nc4ccc5c(cnn5Cc5cccc(F)c5)c4)c3c2)c1 | 6.13 | 8.10
36 | CN1CCN(CCn2ccc(-c3ccc4ncnc(Nc5ccc(OCc6cccc(F)c6)c(Cl)c5)c4c3)c2)CC1 | 5.75 | 7.77
37 | O=C(Cn1ccc(-c2ccc3ncnc(Nc4ccc(OCc5cccc(F)c5)c(Cl)c4)c3c2)c1)N1CCS(=O)(=O)CC1 | 5.83 | –
38 | O=C(c1cn(-c2ccc3ncnc(Nc4ccc(OCc5cccc(F)c5)c(Cl)c4)c3c2)cc1CCO)N1CCOCC1 | 6.80 | 8.10
39 | O=S1(=O)CCC(O)(CNCc2cc(-c3ccc4ncnc(Nc5ccc6c(cnn6Cc6cccc(F)c6)c5)c4c3)c[nH]2)CC1 | 5.54 | 8.22
40 | Fc1cccc(COc2ccc(Nc3ncnc4ccc(-c5ccn(Cc6ccccn6)c5)cc34)cc2Cl)c1 | 6.05 | –
41 | OC1CCN(C[C@H](O)Cn2ccc(-c3ccc4ncnc(Nc5ccc(OCc6cccc(F)c6)c(Cl)c5)c4c3)c2)CC1 | 6.18 | –
42 | OC[C@@H]1CCCN1C[C@@H](O)Cn1ccc(-c2ccc3ncnc(Nc4ccc(OCc5cccc(F)c5)c(Cl)c4)c3c2)c1 | 6.60 | –
43 | CC(Nc1ncnc2ccc(-n3cc(CCO)c(CN4CCCCC4)c3)cc12)c1ccccc1 (stereo unspecified) | 6.25 | –
44 | OCCC1CCN(CC(O)Cn2ccc(-c3ccc4ncnc(Nc5ccc6c(cnn6Cc6cccc(F)c6)c5)c4c3)c2)CC1 (stereo unspecified) | 6.56 | –
45 | O=S1(=O)CCN(CC(O)Cn2ccc(-c3ccc4ncnc(Nc5ccc(OCc6cccc(F)c6)c(Cl)c5)c4c3)c2)CC1 (stereo unspecified) | 5.84 | –
46 | OCCN1CCN(CC(O)Cn2ccc(-c3ccc4ncnc(Nc5ccc(OCc6cccc(F)c6)c(Cl)c5)c4c3)c2)CC1 (stereo unspecified) | 6.15 | –
47 | Fc1cccc(COc2ccc(Nc3ncnc4ccc(-c5ccn(C[C@H]6CCO6)c5)cc34)cc2Cl)c1 | 6.42 | –
48 | OC(CNCCN1CCOCC1)Cn1ccc(-c2ccc3ncnc(Nc4ccc5c(cnn5Cc5cccc(F)c5)c4)c3c2)c1 (stereo unspecified) | 6.15 | –
49 | Fc1cccc(Cn2ncc3cc(Nc4ncnc5ccc(-c6ccn(CCCN7CCOCC7)c6)cc45)ccc32)c1 | 6.37 | –
50 | O=S1(=O)CCC(NCC(O)Cn2ccc(-c3ccc4ncnc(Nc5ccc6c(cnn6Cc6cccc(F)c6)c5)c4c3)c2)CC1 (stereo unspecified) | 6.04 | –

Row | Compound | pIC50 (EGFR (human) [1]) | pIC50 (EGFR (human) [2])
51 | O=S1(=O)CCC(NCC(O)Cn2ccc(-c3ccc4ncnc(Nc5ccc(OCc6cccc(F)c6)c(Cl)c5)c4c3)c2)CC1 (stereo unspecified) | 6.33 | –
52 | Fc1cccc(COc2ccc(Nc3ncnc4ccc(-c5ccn(CCN6CCN(C7CC7)CC6)c5)cc34)cc2Cl)c1 | 5.90 | –
53 | CN(C)Cc1cn(-c2ccc3ncnc(Nc4ccc(F)c(Cl)c4)c3c2)cc1CCO | 6.82 | –
54 | O=C(Cn1ccc(-c2ccc3ncnc(Nc4ccc(OCc5cccc(F)c5)c(Cl)c4)c3c2)c1)N1CCCC1 | 6.32 | –
55 | CC(=O)N[C@@H]1CCN(CC(O)Cn2ccc(-c3ccc4ncnc(Nc5ccc6c(cnn6Cc6cccc(F)c6)c5)c4c3)c2)C1 (stereo partly specified) | 6.46 | –
56 | COCCNCC(O)Cn1ccc(-c2ccc3ncnc(Nc4ccc5c(cnn5Cc5cccc(F)c5)c4)c3c2)c1 (stereo unspecified) | 6.24 | –
57 | O=C(Cn1ccc(-c2ccc3ncnc(Nc4ccc(OCc5cccc(F)c5)c(Cl)c4)c3c2)c1)N1CCC(N2CCOCC2)CC1 | 6.07 | –
58 | O=C(Cn1ccc(-c2ccc3ncnc(Nc4ccc(OCc5cccc(F)c5)c(Cl)c4)c3c2)c1)N1CCSC1 | 6.30 | –
59 | CS(=O)(=O)N1CCN(CC(O)Cn2ccc(-c3ccc4ncnc(Nc5ccc(OCc6cccc(F)c6)c(Cl)c5)c4c3)c2)CC1 (stereo unspecified) | 5.93 | –
60 | CC(Nc1ncnc2ccc(-n3cc(CCO)c(C(=O)N4CCOCC4)c3)cc12)c1ccccc1 (stereo unspecified) | 6.85 | –
61 | OC(CN1CCC(N2CCCCC2)CC1)Cn1ccc(-c2ccc3ncnc(Nc4ccc5c(cnn5Cc5cccc(F)c5)c4)c3c2)c1 (stereo unspecified) | 6.28 | –
62 | NC(=O)C1CCN(CC(O)Cn2ccc(-c3ccc4ncnc(Nc5ccc(OCc6cccc(F)c6)c(Cl)c5)c4c3)c2)CC1 (stereo unspecified) | 6.86 | –
63 | Fc1cccc(COc2ccc(Nc3ncnc4ccc(-c5ccn(CCN6CCC(N7CCCCC7)CC6)c5)cc34)cc2Cl)c1 | 6.35 | –
64 | CCOC(=O)C1CCN(C(=O)Cn2ccc(-c3ccc4ncnc(Nc5ccc(OCc6cccc(F)c6)c(Cl)c5)c4c3)c2)CC1 | 5.48 | –
65 | COC[C@H](O)Cn1ccc(-c2ccc3ncnc(Nc4ccc(OCc5cccc(F)c5)c(Cl)c4)c3c2)c1 | 6.34 | –
66 | CN1CCN(Cc2cn(-c3ccc4ncnc(Nc5ccc(F)c(Cl)c5)c4c3)cc2CCO)CC1 | 6.68 | –
67 | Fc1cccc(Cn2ncc3cc(Nc4ncnc5ccc(-c6ccn(CC7CNCCO7)c6)cc45)ccc32)c1 (stereo unspecified) | 6.15 | –
68 | OC(CN1CC[C@@H](O)C1)Cn1ccc(-c2ccc3ncnc(Nc4ccc(OCc5cccc(F)c5)c(Cl)c4)c3c2)c1 (stereo partly specified) | 6.44 | –
69 | CCOC(=O)N1CCN(CC(O)Cn2ccc(-c3ccc4ncnc(Nc5ccc6c(cnn6Cc6cccc(F)c6)c5)c4c3)c2)CC1 (stereo unspecified) | 6.57 | –
70 | O[C@@H](CNC1CC1)Cn1ccc(-c2ccc3ncnc(Nc4ccc(OCc5cccc(F)c5)c(Cl)c4)c3c2)c1 | 6.15 | –
71 | CC(Nc1ncnc2ccc(-n3cc(CCO)c(CN4CCCC4)c3)cc12)c1ccccc1 (stereo unspecified) | 6.89 | –
72 | OC(CN1CCSC1)Cn1ccc(-c2ccc3ncnc(Nc4ccc(OCc5cccc(F)c5)c(Cl)c4)c3c2)c1 (stereo unspecified) | 6.26 | –
73 | Fc1cccc(Cn2ncc3cc(Nc4ncnc5ccc(-c6ccn(CCOC7CCCCO7)c6)cc45)ccc32)c1 (stereo unspecified) | 6.45 | –
74 | OC(CN1CC[C@@H](F)C1)Cn1ccc(-c2ccc3ncnc(Nc4ccc(OCc5cccc(F)c5)c(Cl)c4)c3c2)c1 (stereo partly specified) | 6.17 | –
